Measured values taken from patent US20070105826A1, “Novel fusidic acid derivatives” (LEO PHARMA A/S, priority 2003, published 2007).
≈ marks a conversion by molar mass, not a printed value.

How the values were obtained:
Assay in all cases: MIC (Minimum Inhibitory Concentration) determination, broth dilution in 96-well plates
Assay type in all cases: cell-based
[1] = test system: Staphylococcus aureus CJ12; conditions: LB broth, aerobic, 37° C., 24 h, cells at t = 0 ˜10^6/ml; for MIC: Staphylococcus aureus, CJ12, read-out: Antibacterial activity, MIC, Staph. aureus CJ12
Protocol: (§1) The fusidic acid analogues of the invention and the reference compounds 201 (fusidic acid (as the sodium salt)), 207, 205 203 and 206 (see notes to Table A) were stored in powder form at +4° C. When used in assays, they were dissolved in 95% EtOH (3.84 mg/ml) and kept for a maximum of 1 month at −20° C. before being discarded. [table] LB media (per 1000 ml ddH2O: 10 g Bacto-tryptone, 5 g yeast extract, 10 g NaCl). THB (Todd-Hewitt Broth) media, SIGMA, product number: T1438 (per 1000 ml ddH2O: 50 g Beef-Heart Infusion, 20 g Casein peptone, 2 g Dextrose, 2 g NaHCO3, 2.5 g NaCl, 0.4 g Na2HPO4). Plates were made using an agar concentration of 1.5%. Blood-agar plates contained an additional 5% (v/v) defibrinated horse blood purchased from SLU (Swedish Agricultural University), Uppsala. MIC tests on the compounds were done in 96-well micro titer plates (Thermo Labsystems). 4×10^5 bacteria were inoculated in 0.4 ml growth media (S. aureus, LB broth, S. pyogenes—TH broth) containing serial dilutions of the compound to be tested starting from 128 μg/ml (dilution factor 2, e.g. 128 μg/ml, 64 μg/ml, . . . , 0.016 μg/ml). The criterion for sensitivity is no visible growth after a 24 h, aerobic incubation at 37° C. Each compound was tested at least twice, and fusidic acid was always included as an experimental control. [table]

[2] = test system: Staphylococcus aureus FDA486; conditions: LB broth, aerobic, 37° C., 24 h, cells at t = 0 ˜10^6/ml; for MIC: Staphylococcus aureus, FDA486, read-out: Antibacterial activity, MIC, Staph. aureus FDA486
Protocol: as §1

[3] = test system: Streptococcus pyogenes DA7121; conditions: TH broth, aerobic, 37° C., 24 h, cells at t = 0 ˜10^6/ml; for MIC: Streptococcus pyogenes, DA7121, read-out: Antibacterial activity, MIC, Strep. pyogenes DA7121
Protocol: as §1

[4] = test system: Streptococcus pyogenes DA7864; conditions: TH broth, aerobic, 37° C., 24 h, cells at t = 0 ˜10^6/ml; for MIC: Streptococcus pyogenes, DA7864, read-out: Antibacterial activity, MIC, Strep. pyogenes DA7864
Protocol: as §1

[5] = test system: Staphylococcus aureus 8325-4; conditions: LB broth, aerobic, 37° C., 24 h, cells at t = 0 ˜10^6/ml
Protocol: as §1

| Compound | Antibacterial activity, MIC, Staph. aureus CJ12 [1] [µg/mL] | Antibacterial activity, MIC, Staph. aureus FDA486 [2] [µg/mL] | Antibacterial activity, MIC, Strep. pyogenes DA7121 [3] [µg/mL] | Antibacterial activity, MIC, Strep. pyogenes DA7864 [4] [µg/mL] | MIC [1] [µg/mL] | MIC [2] [µg/mL] | MIC [3] [µg/mL] | MIC [4] [µg/mL] | Antibacterial activity, MIC, Staph. aureus 8325-4 [5] [µg/mL] | MIC ([5]; Staphylococcus aureus, 83254, read-out: Antibacterial activity, MIC, Staph. aureus 8325-4) [µg/mL] |
| --- | --- | --- | --- | --- | --- | --- | --- | --- | --- | --- |
| CC(=O)O[C@H]1C[C@@]2(C)[C@@H](C[C@@H](O)[C@H]3[C@@]4(C)CC[C@@H](O)[C@@H](C)[C@@H]4CC[C@@]32C)/C1=C(\CCC(Br)=C(C)C)C(=O)O [Compound 108, 24-bromo-fusidic acid] | 0.03 | 0.05 | 0.8 | 0.8 | – | – | – | – | – | – |
| CC(C)=C(Br)CC/C(C(=O)O)=C1\C2C[C@@H](O)C3[C@@]4(C)CC[C@@H](O)[C@@H](C)C4CC[C@]3(C)[C@@]2(C)C[C@@H]1[S+]([O-])C(C)C (stereo partly drawn) [Compound 113, 24-bromo-16-deacetoxy-16β-isopropylsulfinyl-fusidic acid] | – | – | – | – | 0.11 (≈ 0.175 µM) | 0.22 (≈ 0.35 µM) | 0.4 (≈ 0.637 µM) | 0.4 (≈ 0.637 µM) | – | – |
| CC(=O)OC1CC2(C)C(CC(O)C3C4(C)CCC(O)C(C)C4CCC32C)C1C(CCC=C(C)C)C(=O)O (stereo not drawn) [Ref. comp. 205, 17S,20S-Dihydrofusidic acid] | 0.06 | 0.44 | 14 | 28 | – | – | – | – | 0.11 | – |
| 24-bromo-17S,20S-dihydrofusidic acid [Compound 115] | 0.06 | 0.88 | 1.8 | 1.8 | – | – | – | – | 0.11 | – |
| 24-bromo-17S,20S-methylene-fusidic acid [Compound 122] | 0.22 | 0.88 | 7 | 7 | – | – | – | – | 0.88 | – |
| CC(C)=CCC/C(C(=O)O)=C1/[C@@H]([S+]([O-])C(C)C)C[C@@]2(C)[C@H]1C[C@@H](O)[C@H]1[C@@]3(C)CC[C@@H](O)[C@@H](C)[C@@H]3CC[C@@]12C (stereo partly drawn) [Ref. comp. 207, 16-Deacetoxy-16β-isopropylsulfinyl-fusidic acid] | 0.05 | 0.22 | 1.6 | 1.6 | – | – | – | – | – | – |
| CC(=O)O[C@H]1C[C@@]2(C)[C@@H](C[C@@H](O)[C@H]3[C@@]4(C)CC[C@@H](O)[C@@H](C)[C@@H]4CC[C@@]32C)[C@]12C[C@]2(CCC=C(C)C)C(=O)O [Ref. comp. 206, 17S,20S-Methylene-fusidic acid] | 0.06 | 0.22 | >32 | 28 | – | – | – | – | 0.11 | – |
| CC(=O)O[C@H]1C[C@@]2(C)[C@@H](C[C@@H](O)[C@H]3[C@@]4(C)CC[C@@H](O)[C@@H](C)[C@@H]4CC[C@@]32C)/C1=C(\CCC=C(C)C)C(=O)O [Ref. comp. 201, Fusidic acid] | – | – | – | – | 0.03 (≈ 0.0581 µM) | 0.11 (≈ 0.213 µM) | 3.5 (≈ 6.77 µM) | 3.5 (≈ 6.77 µM) | – | 0.03 (≈ 0.0581 µM) |
| CCO[C@H]1C[C@@]2(C)[C@@H](C[C@@H](O)[C@H]3[C@@]4(C)CC[C@@H](O)[C@@H](C)[C@@H]4CC[C@@]32C)/C1=C(\CCC=C(C)C)C(=O)O [Ref. comp. 203, 16-Deacetoxy-16β-ethoxy-fusidic acid] | 0.06 | 0.22 | 7 | 14 | – | – | – | – | 0.22 | – |
| 24-bromo-16-deacetoxy-16β-ethoxy-fusidic acid [Compound 116] | 0.06 | 0.44 | 7 | 7 | – | – | – | – | 0.11 | – |
